Measurements taken from patent US8242280B2, “Fused ring heterocycle kinase modulators” (SGX Pharmaceuticals, Inc., priority 2007, dated 2012).

Legend:
[1] = target: T1, unphosphorylated T315I Abl kinase domain (Mus musculus, UniProt P00520, T315I); test: c-Abl T315I 0P bioassay (pyruvate kinase/lactate dehydrogenase coupled enzyme assay); assay type: biochemical; conditions: zero phosphorylation state (0P), 10 μM ATP, read-out: AbI T315I 0P IC50
T1 construct: purified and unphosphorylated T315I Abl kinase domain; made in house; host or cells: E. coli BL21(DE3) (Codon+RIL or pSA0145 strain)
T1 sequence (P00520 242-493 T315I limits assumed): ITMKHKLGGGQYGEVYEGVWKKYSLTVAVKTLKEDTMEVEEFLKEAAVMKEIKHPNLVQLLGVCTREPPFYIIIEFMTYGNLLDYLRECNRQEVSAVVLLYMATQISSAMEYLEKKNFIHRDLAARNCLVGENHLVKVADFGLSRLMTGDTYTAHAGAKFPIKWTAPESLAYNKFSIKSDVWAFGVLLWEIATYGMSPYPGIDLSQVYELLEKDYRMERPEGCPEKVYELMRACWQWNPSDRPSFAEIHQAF
Excerpt: Although the first of these examples uses the kinase domain of a mutant form of Abl T315I (“Abl T315I KD”), the kinase assays may use various forms of mutant and wild type enzymes, including, for example, the entire protein, the kinase domain, or a portion thereof (e.g. Abl Y393F). The kinases used in the assays may also be of varying phosphorylation states. In the c-Abl example, a mutant kinase at a zero phosphorylation state was used. c-Abl Pyruvate Kinase/Lactate Dehydrogenase Coupled Enzyme Assay
In the c-Abl Pyruvate Kinase (PK)/Lactate Dehydrogenase (LDH) Coupled Assay the protein kinase dependant phosphorylation of a substrate peptide was coupled to the oxidation of NADH. The oxidation of NADH to NAD+ was detected by monitoring a decrease in absorbance at 340 nm.
Materials: Abl substrate peptide=EAIYAAPFAKKK (SEQ ID NO: 1)—OH (Biopeptide, San Diego, Calif.); pNADH (Sigma Cat#N-8129, FW=709.4); 2M MgC12; 1M HEPES buffer, pH 7.5; Phosphoenolpyruvate (PEP) (Sigma Cat#P-7002, FW=234); Lactate dehydrogenase (LDH) (Worthington Biochemical Cat#2756); Pyruvate Kinase (PK) (Sigma Cat#P-9136); ATP (Sigma Cat#A-3377, FW=551); Greiner 384-well UV star plate; and purified and unphosphorylated T315I Abl kinase domain.
Stock Solutions: 10 mM NADH (7.09 mg/ml in miliQH2O) made fresh daily; 10 mM Abl substrate peptide (13.4 mg/ml in miliQH2O) stored at −20° C.; 100 mM HEPES buffer, pH 7.5 (5 ml 1M stock+45 ml miliQH2O); 100 mM MgCl2 (5 ml 2M MgCl2+95 ml dH2O); 100 MM PEP (23.4 mg/ml in dH2O) stored at −20° C.; 10 mM ATP (5.51 mg/ml in dH2O) stored at −20° C. (diluted 50 μl into total of 10 ml miliQH2O daily=50 μM ATP working stock); 1000 U/ml PK (U/mg varies with lot) flash-frozen under liquid N2 and stored at −80° C.; and 1000 U/ml LDH (U/mg varies with lot) flash-frozen under liquid N2 and stored at −80° C.
Standard Assay Setup for 384-well format (50 μl reaction): 300 μM NADH; 10 mM MgCl2; 2 mM PEP; 45U/ml PK; 60 U/ml LDH; 200 μM Abl substrate peptide; 2.5 μl test compound (in DMSO); 2 μg/ml Abl kinase domain; 10 μM ATP; 100 mM HEPES buffer. Positive controls contained DMSO with no test compound. Negative controls contained 5 μl of 0.5M EDTA (50 mM in the assay). The dephosphorylated form of the c-Abl T315I mutant was used in the biochemical screening assays. The kinase reaction was initiated at time t=0 by the addition of ATP.
Activity was measured by following the time-dependent loss of NADH by absorbance spectroscopy at 340 nm. The linear portion of the resulting progress curve was then analyzed by linear regression to get the activity in absorbance units/time, reported as the slope of that best fit line (moles/unit time can be calculated from using molar extinction coefficient for NADH at 340 nm, 6250M^−1 cm^−1).
Data was evaluated using the equation: Z′=1−[3*(σ++σ−)/|μ+−μ−|](Zhang, et al., 1999 J Biomol Screening 4(2) 67-73), where μ denotes the mean and σ the standard deviation. The subscript designates positive or negative controls. The Z′ score for a robust screening assay should be ≧0.50. The typical threshold=μ+−3*σ+. Any value that falls below the threshold was designated a “hit”.
Dose response was analyzed using the equation: y=min+{(max−min)/(1+10^[compound]−logIC50)}, where y is the observed initial slope, max=the slope in the absence of inhibitor, min=the slope at infinite inhibitor, and the IC50 is the [compound] that corresponds to ½ the total observed amplitude (Amplitude=max−min).
To measure modulation, activation, or inhibition of Abl KD, a test compound was added to the assay at a range of concentrations. Inhibitors may inhibit Abl KD activity at an IC50 in the micromolar range, the nanomolar range, or, for example, in the subnanomolar range.
An open-reading frame for c-Abl was amplified from a Mus musculus (mouse) cDNA library prepared from freshly harvested mouse liver using a commercially available kit (invitrogen) by PCR using the following primers: […]
The c-Abl T315I KD (kinase domain) was purified as follows. […]

[2] = target: Ba/F3 cells, ABL1 T315I (Homo sapiens, UniProt P00519, T315I, cells depend on it); test: 96-well XTT cell survival assay, Ba/F3 ABL1 T315I; assay type: cell-based; conditions: 72 hours, read-out: ABL1 T315I XTT [Ba/F3] IC50
Description: (§1) MV4-11 and THP cells were maintained in Iscove's Modified Dulbecco's Medium supplemented with 10% fetal bovine serum (FBS) and penicillin/streptomycin, Ba/F3 cells were maintained in RPMI 1640 supplemented with 10% FBS, penicillin/streptomycin and 5 ng/ml recombinant mouse IL-3.
(§2) Compounds were tested in the following assays in duplicate.
(§3) 96-well XTT assay: Cells (e.g. BaF3 315I, M351I, or E255K cells) were grown in growth media containing various concentrations of compounds (duplicates) on a 96-well plate for 72 hours at 37° C. The starting cell number was 5000-8000 cells per well and volume was 120 μl. At the end of the 72-hour incubation, 40 μl of XTT labeling mixture (50:1 solution of sodium 3′-[1-(phenylamino-carbonyl)-3,4-tetrazolium]-bis(4-methoxy-6-nitro)benzene sulfonic acid hydrate and Electron-coupling reagent: PMS (N-methyl dibenzopyrazine methyl sulfate) were added to each well of the plate. After an additional 2-6 hours of incubation at 37° C., the absorbance reading at 405 nm with background correction at 650 nm was measured with a spectrophotometer.

[3] = target: Ba/F3 cells, ABL1 WT (Homo sapiens, UniProt P00519); test: 96-well XTT cell survival assay, Ba/F3 ABL1 WT; assay type: cell-based; conditions: 72 hours, read-out: ABL1 WT XTT [Ba/F3] IC50
Description: as §1, §2, §3

SMILES	IC50 [1] [nM]	GI50 [2] [nM]	GI50 [3] [nM]
COc1ccccc1-c1c[nH]c2ncc(-c3cccc(C(CC(=O)N4CCC[C@@H]4CO)N4CCS(=O)(=O)CC4)c3)cc12 (stereo partly shown)	50 to 500	> 1000	> 1000
COc1ccccc1-c1n[nH]c2ncc(-c3cccc(C(OC)C(=O)N4CC(O)C4)c3)cc12 (stereo not shown)	< 50		
COc1ccccc1-c1n[nH]c2ncc(-c3cccc(C(O)CN)c3)cc12 (stereo not shown)	< 50		
CNCCN(C)C(=O)C(N)c1cccc(-c2cnc3[nH]cc(-c4ccccc4OC)c3c2)c1 (stereo not shown)	< 50	> 1000	> 1000
COc1ccccc1-c1n[nH]c2ncc(-c3cccc(C(O)C(=O)N(C)CC#N)c3)cc12 (stereo not shown)	< 50	> 1000	< 1000
COc1ccccc1-c1n[nH]c2ncc(-c3cccc(C(O)C(=O)N(C)CCC#N)c3)cc12 (stereo not shown)	< 50	< 1000	< 1000
COc1ccccc1-c1n[nH]c2ncc(-c3cccc(C(O)C(=O)N(C)C4CCOCC4)c3)cc12 (stereo not shown)	< 50	< 1000	< 1000
COc1ccccc1-c1n[nH]c2ncc(-c3cccc(C(O)C(=O)N(C)Cc4ccco4)c3)cc12 (stereo not shown)	< 50	> 1000	> 1000
COc1ccccc1-c1n[nH]c2ncc(-c3cccc(C(O)C(=O)N(C)CCO)c3)cc12 (stereo not shown)	< 50	< 1000	< 1000
COc1ccccc1-c1c[nH]c2ncc(-c3cncc(C(O)C(=O)N(C)C)c3)cc12 (stereo not shown)	< 50	< 1000	< 1000
COc1ccccc1-c1n[nH]c2ncc(-c3cccc(C(O)C(=O)N(C4CC4)C4CCN(C)CC4)c3)cc12 (stereo not shown)	< 50	< 1000	< 1000
COc1ccccc1-c1n[nH]c2ncc(-c3cccc(C(O)C(=O)N(C)CCNC(C)(C)C)c3)cc12 (stereo not shown)	< 50	< 1000	< 1000
COc1ccccc1-c1n[nH]c2ncc(-c3cccc(C(C)C(=O)N(C)C)c3)cc12 (stereo not shown)	< 50	> 1000	> 1000
COc1ccccc1-c1n[nH]c2ncc(-c3cccc(C(C)C(=O)N(C)CCN(C)C)c3)cc12 (stereo not shown)	< 50	> 1000	> 1000
COc1ccccc1-c1n[nH]c2ncc(-c3cccc(C(C)C(=O)N4CCC(N(C)C)C4)c3)cc12 (stereo not shown)	< 50	< 1000	< 1000
COc1ccccc1-c1n[nH]c2ncc(-c3cccc(C(C)C(=O)N(C)C4CCN(C)C4)c3)cc12 (stereo not shown)	< 50	> 1000	< 1000
CNC(C(=O)N1CCC(O)C1)c1cccc(-c2cnc3[nH]nc(-c4ccccc4OC)c3c2)c1 (stereo not shown)	< 50		

SMILES	IC50 [1] [nM]	GI50 [2] [nM]	GI50 [3] [nM]
COc1ccccc1-c1n[nH]c2ncc(-c3cccc(C(C(=O)N(C)C)N(C)C)c3)cc12 (stereo not shown)	50 to 500		
COc1ccccc1-c1n[nH]c2ncc(-c3cccc(C(C(=O)N4CCC(O)C4)N(C)C)c3)cc12 (stereo not shown)	50 to 500		
COc1ccccc1-c1n[nH]c2ncc(-c3cccc(C(C(=O)N(C)C(C)C)N(C)C)c3)cc12 (stereo not shown)	50 to 500		
COc1ccccc1-c1c[nH]c2ncc(-c3cncc(C(O)C(=O)N(C)C)n3)cc12 (stereo not shown)	> 500		
COc1ccccc1-c1n[nH]c2ncc(-c3cccc([C@@H]4OCO[C@H]4C(C)C)c3)cc12	< 50		
CC(=O)Nc1ccc(-c2c[nH]c3ncc(-c4cncc(C(O)C(=O)N(C)C)c4)cc23)cc1 (stereo not shown)	< 50	> 1000	
CN(C)C(=O)C(O)c1cncc(-c2cnc3[nH]cc(-c4cccc(C#N)c4)c3c2)c1 (stereo not shown)	50 to 500		
CN(C)C(=O)C(O)c1cncc(-c2cnc3[nH]cc(-c4ccc(C(F)(F)F)cc4)c3c2)c1 (stereo not shown)	50 to 500		
Cc1noc(C)c1-c1c[nH]c2ncc(-c3cncc(C(O)C(=O)N(C)C)c3)cc12 (stereo not shown)	50 to 500		
CN(C)C(=O)C(O)c1cncc(-c2cnc3[nH]cc(-c4cnn(C)c4)c3c2)c1 (stereo not shown)	50 to 500		
CN(C)C(=O)C(O)c1cncc(-c2cnc3[nH]cc(-c4ccn(-c5ccccc5)n4)c3c2)c1 (stereo not shown)	50 to 500		
CN(C)C(=O)C(O)c1cncc(-c2cnc3[nH]cc(-c4ncco4)c3c2)c1 (stereo not shown)	50 to 500		
CN(C)C(=O)C(O)c1cncc(-c2cnc3[nH]cc(-c4cc(C(F)(F)F)nn4C)c3c2)c1 (stereo not shown)	> 500		
CN(C)C(=O)C(=O)c1cncc(-c2cnc3[nH]cc(-c4ccnn4C)c3c2)c1	> 500		
COc1ccccc1-c1c[nH]c2ncc(-c3cccc(C(CC(=O)N(C)C)N4CCS(=O)(=O)CC4)c3)cc12 (stereo not shown)	> 500		
COc1ccccc1-c1c[nH]c2ncc(-c3cccc(C(CC(=O)N(C)CCN(C)C)N4CCS(=O)(=O)CC4)c3)cc12 (stereo not shown)	> 500		
CN(C)C(=O)C(O)c1cncc(-c2cnc3[nH]cc(-c4cccc(Cl)c4)c3c2)c1 (stereo not shown) [drawing 459]	< 50		< 1000
